Data on three compounds can be found in PubChem BioAssay (NCI).

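Step 1: Grow cells in 96-well plates. Step 2: Expose to compound for 48 hours at 5 concentrations. Step 3: Interpolate endpoints linearly; if unreached, use highest concentration. At the TGI there is no net growth.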

Among the test systems are SF-539 CNS; NCI-H226 lung; UACC-62 melanoma; A498 renal; SR leukemia; NCI/ADR-RES ovarian; SW-620 colon; SNB-19 CNS; U251 CNS; MCF7 breast; NCI-H522 lung; OVCAR-5 ovarian; SF-268 CNS; SN12C renal; DU-145 prostate; NCI-H460 lung; T-47D breast; UO-31 renal; ACHN renal; M14 melanoma.
Common to all, as to experiment: NCI tumour cell line growth inhibition, 48 h

With `NCCCNC1(c2cc3ccccc3s2)CCCCC1`, the TGI is 4.23 µM in the assay with SF-539 CNS; 33.3 µM with NCI-H226 lung; 3.87 µM in the assay with UACC-62 melanoma; 9.03 µM with A498 renal; 4.68 µM in the assay on SR leukemia; 30.4 µM in the assay with NCI/ADR-RES ovarian. The TGI in the assay on SW-620 colon was 21.2 µM; in the assay with SNB-19 CNS, 22.5 µM; in the assay on U251 CNS it was 10 µM; in the assay on MCF7 breast, 12.2 µM; with NCI-H522 lung, 9.13 µM; in the assay on OVCAR-5 ovarian, 26.3 µM. Also, the TGI in the assay with SF-268 CNS worked out at 24.7 µM; in the assay on SN12C renal, 22.8 µM; with DU-145 prostate it was 24.8 µM; in the assay on NCI-H460 lung it was 4.06 µM; in the assay on T-47D breast, 6.96 µM; with UO-31 renal, 8.44 µM. The TGI in the assay on ACHN renal was found to be 24.4 µM; in the assay with M14 melanoma it was 3.51 µM.
With `Cn1c(-c2ccccc2)cc2c3ccsc3c3ccsc3c21`, the TGI in the assay on SF-539 CNS, in the assay on NCI-H226 lung, in the assay with UACC-62 melanoma, in the assay with A498 renal, in the assay with SR leukemia and in the assay on NCI/ADR-RES ovarian was over 100 µM throughout. In addition, the TGI in the assay with SW-620 colon, with SNB-19 CNS, in the assay with U251 CNS, in the assay with MCF7 breast, in the assay on NCI-H522 lung and in the assay on OVCAR-5 ovarian was over 100 µM in each case. The TGI with SF-268 CNS, with SN12C renal, in the assay with DU-145 prostate, in the assay with NCI-H460 lung, in the assay on T-47D breast and in the assay on UO-31 renal was over 100 µM each time. For the same compound, the TGI with ACHN renal and in the assay on M14 melanoma was over 100 µM each time.
As for `C#CC1(O)C(COP(=O)(O)OCC2OC(n3ccc(NCCCCCCCCCCCCCCCCCC)nc3=O)C(O)C2O)OC(n2ccc(N)nc2=O)C1O` (stereo not given), the TGI is 34.5 µM in the assay with SF-539 CNS; over 46.4 µM with NCI-H226 lung; 10.3 µM with UACC-62 melanoma; 59.2 µM in the assay with A498 renal; 11.7 µM in the assay on SR leukemia; 37.3 µM in the assay on NCI/ADR-RES ovarian. Moreover, the TGI was over 50 µM with SW-620 colon; 40.6 µM in the assay with SNB-19 CNS; 53.5 µM in the assay with U251 CNS; over 59.7 µM with MCF7 breast; 0.773 µM with NCI-H522 lung; 60.5 µM in the assay with OVCAR-5 ovarian. In addition, the TGI with SF-268 CNS is 38.1 µM; with SN12C renal, 39.9 µM; in the assay with DU-145 prostate it was over 100 µM; with NCI-H460 lung, 34.4 µM; in the assay with T-47D breast, over 38.4 µM; with UO-31 renal, 2.53 µM. Also, the TGI in the assay on ACHN renal was over 53.3 µM; in the assay on M14 melanoma, 15.2 µM.
